Key:
Type in all cases: physicochemical
[1] = Degree of (vinyl) conversion (DC) of cured dental adhesive/resin by FT-IR (ATR); settings: for Degree of Conversion: resin 70 wt % Bis-GMA / 30 wt % TEGDMA with CQ/4E; for change of Degree of Conversion (in words) / increase of Degree of Conversion / decrease of Degree of Conversion: versus resin without additive; for change of Degree of Conversion (in words) / decrease of Degree of Conversion: Bis-GMA/TEGDMA resin; for Degree of Conversion (%): approx 0.25 wt % additive; for effect on DC (in words): both adhesives (SB and B6H4); for increase of Degree of Conversion: 70 wt % Bis-GMA / 30 wt % TEGDMA, CQ/4E
[2] = biological target: T1, pseudocholine esterase from equine serum (PCE) (Equus caballus, UniProt P81908); experiment: Biostability: AFM-based step height change (ΔH) under enzymatic challenge
T1 construct: pseudocholine esterase from equine serum; purchased Sigma C7512; host or cells: equine serum

[3] = Glass transition temperature (Tg) / tan δ peak by dynamic mechanical analysis (DMA)
Method: The degree of conversion (DC) and glass transition temperature (Tg) of adhesives and resins with or without the additives (such as Azo-QPS-C16) were measured by Fourier transform infrared (FTIR) spectrometer and dynamic mechanical analyzer (DMA), respectively. The stability against enzymatic challenges of four adhesives (and resins) was evaluated using an atomic force microscopy (AFM)-based method. The adhesives' bonding strength and bonding durability are determined and compared based on shear bond strength (SBS), micro-tensile bond strength (pTBS), and bonding durability under the challenges of thermal cycling.
The glass transition temperature (Tg) of adhesives with or without additive were measured by dynamic mechanical analysis (DMA).

[4] = biological target: T1, pseudocholine esterase from equine serum (PCE); experiment: Biostability: AFM-based step height change (ΔH) under enzymatic challenge; remark: listed apart in the source
From the text: Various embodiments of the present application can be better understood by reference to the following Examples which are offered by way of illustration. The scope of the present application is not limited to the Examples given herein. The enzymatic challenge measurement method described herein is described in Wang X, Song S, Chen L, Stafford CM, Sun J, Acta Biomater., 2018, 74, 326, and Yamauchi S, Wang X, Egusa H, Sun J. “High-performance dental adhesives containing an ether-based monomer” Journal of Dental Research, 2020, 99, 189, which are both incorporated by reference herein in their entireties.
Biostability of the dental materials such as resins and adhesives is of critical importance to their durability. These materials may break down in the oral environment, which may be due to enzymatic and/or bacterial challenges, which can result in failure of the restoration and secondary caries. The stability against enzymatic challenges of dental materials including adhesives and resins, with and without additives, was evaluated using an atomic force microscopy (AFM)-based method, described by Wang et al., in “Short-time dental resin biostability and kinetics of enzymatic degradation”, Acta Biomaterialia, Volume 74, 1 Jul. 2018, Pages 326-333, incorporated herein in its entirety. Briefly, this method allows evaluation of materials by assessing the step height (H) and the changes in the step height (ΔH), that are caused by enzymatic exposure. The ΔH values are caused as material exposed to salivary enzymes or the like is removed due to degradation of the exposed material.
The stability of SB was compared to the same adhesive incorporating Azo-QPS-C16 as an additive at approximately 0.25 wt %. Samples were prepared according to the method described by Wang, and were exposed to either pseudocholine esterase from equine serum (PCE, Product No. C7512, Sigma, Saint Louis, MO, USA) were reconstituted in saline solution containing 40 mM magnesium chloride and 99 mM of sodium chloride following vender's instruction, or a control solution without PCE for various times up to 72 hours. […] For the SB sample exposed to PCE, the ΔH value increased to about 175 nm. In comparison, the addition of approximately 0.25 wt % Azo-QPS-C16 reduced the ΔH values after 72 hours to about 50 nm and about 60 nm for the control and PCE-exposed samples, respectively, thus showing inclusion of Azo-QPC-C16 in the adhesive improved the stability dramatically.

[5] = B6H4, approximately 0.25 wt % additive

T1 sequence (P81908 whole entry): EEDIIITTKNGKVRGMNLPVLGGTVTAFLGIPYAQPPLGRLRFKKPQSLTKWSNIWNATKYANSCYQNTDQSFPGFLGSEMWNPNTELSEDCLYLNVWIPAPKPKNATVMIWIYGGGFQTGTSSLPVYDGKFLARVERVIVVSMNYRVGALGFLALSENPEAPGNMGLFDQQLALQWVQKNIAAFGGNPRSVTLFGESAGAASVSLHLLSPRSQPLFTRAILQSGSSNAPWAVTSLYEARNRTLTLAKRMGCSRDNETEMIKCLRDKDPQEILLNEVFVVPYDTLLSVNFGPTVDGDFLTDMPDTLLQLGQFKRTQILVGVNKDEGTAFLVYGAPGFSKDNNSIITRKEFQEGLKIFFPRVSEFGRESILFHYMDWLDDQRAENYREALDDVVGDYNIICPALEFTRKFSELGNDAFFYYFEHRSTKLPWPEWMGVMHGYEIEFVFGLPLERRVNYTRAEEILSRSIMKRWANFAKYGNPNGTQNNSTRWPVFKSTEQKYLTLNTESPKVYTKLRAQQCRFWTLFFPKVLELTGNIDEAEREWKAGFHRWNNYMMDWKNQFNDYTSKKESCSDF

## C=C(C)C(=O)Oc1ccc(/N=N/c2ccncc2)cc1 [Azo-Py-MA, reference compound]
[1]; 0.5 wt % additive
  Degree of Conversion: 70.2%
[1]
  change of Degree of Conversion (in words): no change

## C=C(C)C(=O)Oc1ccc(/N=N/c2cc[n+](CCCCCCCCCCCCCCCC)cc2)cc1.[Br-] [Azo-QPS-C16, (E)-1-hexadecyl-4-((4-(methacryloyloxy)phenyl)diazenyl)-pyridinium bromide]
[2]; B6H4 with CQ/4E, approximately 0.25 wt % additive, control, after 72 hours
  ΔH: about 50 nm
[2]; B6H4 with CQ/4E, approximately 0.25 wt % additive, exposed to PCE, after 72 hours
  ΔH: about 70 nm
[2]; adhesives PBNT, SBP, SUP, EBSE and XIV, approximately 0.25 wt % additive versus no additive (FIGS. 8-12)
  effect on ΔH values (in words): decreased the ΔH values
[3]; [5]
  glass transition temperature (Tg): increases
  tan δ peak: narrowed
[3]; SB, approximately 0.25 wt % additive
  tan δ peak: narrowed
[4]; SB, approximately 0.25 wt % additive, PCE-exposed, after 72 hours
  ΔH: about 60 nm
[4]; SB, approximately 0.25 wt % additive, control solution without PCE, after 72 hours
  ΔH: about 50 nm
[1]; B6H4/CQ/4E, 0.1 wt % additive
  DC (%): 76.9 ± 0.7%
[1]; B6H4/CQ/4E, 0.25 wt % additive
  DC (%): 79.5 ± 0.8%
[1]; B6H4/CQ/4E, 0.5 wt % additive
  DC (%): 80.5 ± 1.2%
[1]; B6H4/CQ/4E, 1.0 wt % additive
  DC (%): 81.3 ± 1.4%
[1]; B6H4/CQ/4E, 1.25 wt % additive
  DC (%): 76.2 ± 1.5%
[1]; B6H4/CQ/4E, 1.5 wt % additive
  DC (%): 64.4 ± 2.2%
[1]; B6H4/CQ/4E, 2.0 wt % additive
  DC (%): 26.0 ± 2.6%
[1]; EBSE adhesive
  Degree of Conversion (%): 73.7 ± 0.6%
[1]; PBNT adhesive
  Degree of Conversion (%): 66.4 ± 0.7%
[1]; SBP adhesive
  Degree of Conversion (%): 70.3 ± 0.5%
[1]; SUP adhesive
  Degree of Conversion (%): 72.5 ± 1.0%
[1]; Scotchbond Multi-Purpose (SB), 0.1 wt % additive
  DC (%): 76.1 ± 0.8%
[1]; Scotchbond Multi-Purpose (SB), 0.25 wt % additive
  DC (%): 78.6 ± 0.9%
[1]; Scotchbond Multi-Purpose (SB), 0.5 wt % additive
  DC (%): 79.2 ± 1.1%
[1]; Scotchbond Multi-Purpose (SB), 1.0 wt % additive
  DC (%): 79.5 ± 1.4%
[1]; Scotchbond Multi-Purpose (SB), 1.25 wt % additive
  DC (%): 75.5 ± 1.5%
[1]; Scotchbond Multi-Purpose (SB), 1.5 wt % additive
  DC (%): 55.0 ± 1.4%
[1]; Scotchbond Multi-Purpose (SB), 2.0 wt % additive
  DC (%): 12.8 ± 3.1%
[1]; XIV adhesive
  Degree of Conversion (%): 74.2 ± 1.1%
[1]; approximately 0.1 wt % additive
  effect on DC (in words): enhances the DC of both adhesives
[1]; more than approximately 1.25 wt % additive (about 1.5 or 2 wt %)
  effect on DC (in words): significant DC decrease
[1]; 0.5 wt % additive
  Degree of Conversion: 74.5%
  increase of Degree of Conversion: 4.3%

## C=C(C)C(=O)OCCCCCC[n+]1ccc(/N=N/c2ccc(OC(=O)C(C)C)cc2)cc1.[Br-] [MA-C6-Azo-Py-iBu]
[2]; B6H4, approximately 0.25 wt % additive, PCE (FIG. 6)
  ΔH: ~65 nm
[2]; B6H4, approximately 0.25 wt % additive, control (FIG. 6)
  ΔH: approximately 50 nm
[4]; Scotchbond (SB), PCE (FIG. 7)
  ΔH: ~70 nm
[4]; Scotchbond (SB), control (FIG. 7)
  ΔH: approximately 50 nm
[1]; 0.5 wt % additive
  Degree of Conversion: 74.9%
  increase of Degree of Conversion: 4.7%

## C=C(C)C(=O)OCCNC(=O)OCCCCCCCC[n+]1ccc(/N=N/c2ccc(OC(=O)C(C)C)cc2)cc1.[Br-] [MA-CB13-Azo-QPS-iBu]
[4]; added to dental adhesives
  biostability of the adhesives (in words): has not been demonstrated to improve the biostability
[1]; 0.5 wt % additive
  Degree of Conversion: 70.7%
  increase of Degree of Conversion: 0.5%

## CC(C)C(=O)Oc1ccc(/N=N/c2ccncc2)cc1 [Azo-Py-iBu, (E)-4-(pyridin-4-yldiazenyl)phenyl isobutyrate, reference compound]
[1]; 0.5 wt % additive
  Degree of Conversion: 66.7%
[1]
  decrease of Degree of Conversion: 3.5%

## c1ccc(/N=N/c2ccccc2)cc1 [reference compound]
[1]
  change of Degree of Conversion (in words): No change

## Oc1ccc(/N=N/c2ccncc2)cc1 [Azo-Py-OH, reference compound]
[1]; 0.5 wt % additive
  Degree of Conversion: 68.4%
[1]
  decrease of Degree of Conversion: 1.8%

## c1cc(CCc2ccncc2)ccn1 [reference compound]
[1]
  change of Degree of Conversion (in words): No change

## C=C(C)C(=O)Oc1ccc(/N=N/c2cc[n+](CC)cc2)cc1.[Br-] [Azo-QPS-C2-MA]
[1]; 0.5 wt % additive
  Degree of Conversion: 72.3%
  increase of Degree of Conversion: 2.1%

## c1cc(N=Nc2ccncc2)ccn1 [reference compound]
[1]
  change of Degree of Conversion (in words): No change

## CC(C)C(=O)Oc1ccc(/N=N/c2cc[n+](CCCCCBr)cc2)cc1.[Br-] [Br-C6-Azo-Py-iBu]
[1]; 0.5 wt % additive
  Degree of Conversion: 75.1%
  increase of Degree of Conversion: 4.9%

From patent publication US20250360057A1, “ENHANCING DENTIN BONDING DURABILITY USING QUATERNARY PYRIDINIUM SALTS” (ADA Science and Research Institute LLC, priority 2022, published 2025)
